Data set [1] in a line: Extent of reaction with 5 equiv of reduced glutathione (GSH) between 16 and 22 hours at pH 7.4 and 37 degree C.
Data set [2] can be described thus: Solubility. The format is physicochemical. Conditions: read-out: S.
The subject of data set [3] is Oryctolagus cuniculus. Description: In vivo intraocular pressure reduction was determined in rabbits after effective topical dose (duration expressed as number of time points, P<=0.05). The format is functional, Eye.
The target of data set [4] is Carbonic anhydrase 2 (Homo sapiens, UniProt P00918).
Description: In vitro inhibition of human carbonic anhydrase II (0.1 nM).
Data set [5] can be described thus: Extent of reaction with 20 equiv of reduced glutathione (GSH) in 20 hours at pH 7.4 and 37 degree C.
For data set [6], the system named is Oryctolagus cuniculus. Description: METD(minimum effective topical dose of the compound) for ocular hypotensive activity in alpha-CT-rabbits. The data set is classed as functional, Eye.
The species named for data set [7] is Cavia porcellus. Description: Number of animals showing dermal sensitization/ number of animals tested in Magnusson-Kligman assay; 8/19. The data set is classed as functional.
The species entered for data set [8] is Cavia porcellus. The experiment in a line: Number of animals showing dermal sensitization/ number of animals tested in Magnusson-Kligman assay. The data set is classed as functional.
The species entered for data set [9] is Cavia porcellus. Description: Number of animals showing dermal sensitization/ number of animals tested in Magnusson-Kligman assay; 15/40. The format is functional.

The structures appear in SMILES notation. pIC50: −log10 of the molar value. In brackets after ≈: the same amount, converted by molar mass.

This note sets out measurements from ChEMBL document CHEMBL1124833, “Topically active carbonic anhydrase inhibitors. 3. Benzofuran- and indole-2-sulfonamides” (J Med Chem, 1990).

For `NS(=O)(=O)c1cc2ccc(O)cc2[nH]1`, the GSH in data set [1] came to 2.5%; in data set [5] it was 17%. The solubility in data set [2] was 4800 µg/mL (≈ 22600 µM). In addition, the “Max IOP reduction” value in [3] is -5 mmHg. In addition, the pIC50 in [4] is 7.52. Moreover, in data set [6], the METD is on record as 0.5%.
In the case of `CC(C)(C)C(=O)Oc1ccc2oc(S(N)(=O)=O)cc2c1`, the GSH in [1] came to 3.4%. Moreover, in data set [4], the pIC50 was 8.52.
Consider `NS(=O)(=O)c1cc2ccc(O)cc2o1`, for which the values for the GSH in data set [1] and in data set [5] were 4.9% and 23%, respectively. For the same compound, the solubility in [2] amounted to 2800 µg/mL (≈ 13100 µM). The No. of animals in [7] amounted to 8. For the same compound, in data set [3], the “Max IOP reduction” value is recorded as -5.2 mmHg. The compound also had a pIC50 in data set [4] of 7.96. Besides, in data set [6], the METD is given as 0.5%.
With `CC(=O)Oc1ccc2cc(S(N)(=O)=O)oc2c1`, the “Max IOP reduction” value in data set [3] is -8.8 mmHg. In [4], this compound gave a pIC50 of 8.26. In data set [6], this compound registered an METD of 0.5%.
As to `COc1ccc2cc(S(N)(=O)=O)n(C)c2c1`, the solubility in data set [2] stood at 40 µg/mL (≈ 166 µM). The same compound had a pIC50 in [4] of 6.96. Further, in data set [5], the GSH is 37%.
Regarding `COc1ccc2cc(S(N)(=O)=O)n(S(=O)(=O)c3ccccc3)c2c1`, in data set [4], the pIC50 was less than 5.00.
On to `CC(C)(C)C(=O)Oc1ccc2cc(S(N)(=O)=O)oc2c1`, for which the “Max IOP reduction” value in data set [3] was -5.3 mmHg. In addition, the METD in data set [6] is given as 0.5%.
In the case of `NS(=O)(=O)c1cc2ccccc2o1`, the GSH in data set [1] was determined as 0%; in [5], 10%. In addition, the solubility in data set [2] came out at 480 µg/mL (≈ 2430 µM). The compound further gave a pIC50 in data set [4] of 8.10.
Take `COc1ccc2[nH]c(S(N)(=O)=O)cc2c1`: in data set [2], the solubility is 150 µg/mL (≈ 663 µM). The pIC50 in [4] is 7.80.
Take `CC(=O)Oc1ccc2cc(S(N)(=O)=O)sc2c1`: the “Max IOP reduction” value in data set [3] was -5.3 mmHg. Besides, the METD in data set [6] was 0.1%.
Take `COc1ccc2cc(S(N)(=O)=O)[nH]c2c1`: the solubility in data set [2] was 520 µg/mL (≈ 2300 µM). Further, the negative logarithm of the IC50 (pIC50) in data set [4] is 7.22.
In data set [4], `CC(=O)Oc1ccc2cc(S(N)(=O)=O)[nH]c2c1` showed a pIC50 of 7.49.
Consider `NS(=O)(=O)c1cc2ccc(O)cc2s1`, for which the No. of animals in [8] is 0. In addition, the GSH was found to be 0% in [1] and 2.9% in [5]. Besides, in data set [2], the solubility stood at 430 µg/mL (≈ 1880 µM). In addition, the “Max IOP reduction” value in [3] is -5.5 mmHg. The compound also showed an METD in data set [6] of 0.05%.
Consider `NS(=O)(=O)c1cc2cc(O)ccc2[nH]1`, for which the No. of animals in data set [8] is listed as 19. In addition, the GSH was determined as 0.7% in data set [1] and 13% in data set [5]. In data set [2], the solubility turned out to be 1900 µg/mL (≈ 8950 µM). In addition, in data set [3], the “Max IOP reduction” value was -7.5 mmHg. Also, in data set [4], the pIC50 is 7.66. The compound also registered an METD in data set [6] of 0.1%.
Turning to `NS(=O)(=O)c1cc2cc(O)ccc2o1`, the GSH stood at 4% in data set [1] and 9% in [5]. In addition, the solubility in [2] was found to be 2100 µg/mL (≈ 9850 µM). Besides, the No. of animals in data set [9] is 15. For the same compound, the “Max IOP reduction” value in [3] was -6 mmHg. The same compound gave a pIC50 in data set [4] of 8.19. Further, in data set [6], the METD stood at 0.1%.
Turning to `CC(=O)Oc1ccc2oc(S(N)(=O)=O)cc2c1`, the solubility in [2] turned out to be 190 µg/mL (≈ 744 µM). In data set [3], this compound came in with a Max IOP reduction of -5.7 mmHg. The same compound had a pIC50 in [4] of 8.19.
As for `NS(=O)(=O)c1cc2ccccc2[nH]1`, in data set [1], the GSH turned out to be 0%. Moreover, the solubility in data set [2] was 850 µg/mL (≈ 4330 µM). In data set [4], this compound gave a pIC50 of 7.35.
Compound `COc1ccc2cc(S(N)(=O)=O)oc2c1` had a pIC50 in data set [4] of 7.82.
In the case of `CC(=O)Oc1ccc2[nH]c(S(N)(=O)=O)cc2c1`, the solubility in data set [2] came out at 220 µg/mL (≈ 865 µM). The pIC50 in data set [4] is 7.96.
As to `Nc1ccc2cc(S(N)(=O)=O)oc2c1`, the GSH in data set [1] was 11%; in [5], 17%. Besides, the solubility in data set [2] was determined as 80 µg/mL (≈ 377 µM). In [4], this compound showed a pIC50 of 7.60.
`Cc1c(S(N)(=O)=O)oc2cc(O)ccc12` showed a negative logarithm of the IC50 (pIC50) in data set [4] of 6.68. For the same compound, the GSH in data set [5] turned out to be 47%.
Take `Nc1ccc2oc(S(N)(=O)=O)cc2c1`: the GSH in data set [1] was found to be 11%. In addition, the solubility in data set [2] amounted to 280 µg/mL (≈ 1320 µM). In addition, the “Max IOP reduction” value in [3] is given as -6 mmHg. The pIC50 in data set [4] was 8.05. Also, the METD in [6] was found to be 0.5%.
For the compound `NS(=O)(=O)c1cc2cc3c(cc2[nH]1)OCO3`, the solubility in data set [2] amounted to 50 µg/mL (≈ 208 µM). Besides, the pIC50 in [4] is 7.60.
Regarding `COc1ccc2oc(S(N)(=O)=O)cc2c1`, the solubility in data set [2] is 540 µg/mL (≈ 2380 µM). In addition, the pIC50 in data set [4] is 8.29. Further, the GSH in data set [5] stood at 10%.
